Values of other authors as cited in patent publication US12685710B2, “Administration of ciclopirox with no adversal gastrointestinal toxicity” (ATLAS MOLECULAR PHARMA, S.L., priority 2021, dated 2026).

System: patients with hematological malignancies

Compound: Cc1cc(C2CCCCC2)n(O)c(=O)c1 [ciclopirox olamine, 6-cyclohexyl-1-hydroxy-4-methyl-2 (1H)-pyridone with 2-aminoethanol in a 1:1 ratio]
- grade 3 GI dose limiting toxicity (DLTs) and bowel inflammation, patients affected in cohort (oral, OraSweet formulation, 80 mg/m^2 (2.2 mg/kg) 4 times daily): 3/4
- tolerability of once-daily dosing (oral, once daily up to and including 40 mg/m^2 (1.1 mg/kg)): well tolerated
- gastrointestinal toxicity in Phase I study (patients treated with ciclopirox olamine): showed gastrointestinal toxicity
